One test concerns mouse sciatic nerve. As to conditions: cited from earlier work.
The subject of another test is muscle strength of mice. The following applies: mouse, in vivo.

The structures appear in SMILES notation.

In the case of `CCN(CC)CC(=O)Nc1c(C)cccc1C` [lidocaine], the “concentration necessary for similar inhibitory effect on mouse sciatic nerve” value with mouse sciatic nerve is “Millimolar concentrations”.

Take `CCN(CC)CCOC(=O)c1ccc(N)cc1` [procaine]: the “time to decrease of 50% of the relative strength” value with muscle strength of mice is recorded as ~10 min.

Values taken from patent US9644011B2 (priority 2005, dated 2017).
